For test [1], the system named is ABCF1. The test is classed as cell-based, murine. As to conditions: RAW264.7, 10 nM, 100 nM, 500 nM, 2 hours post treatment, normalized to GAPDH (FIG. 2). On the procedure:
• 1. Macrophage cell line RAW264.7 (ATCC) were grown to 80% confluency in growth media (DMEM+10% FBS+glutamine). • 2. Dilutions of the drugs were made at desired final concentrations for a Dose response experiment. The concentrations' used for this experiment are: 10 nM, 100 nM, 500 nM for Psilocin, Psylocibin, 4-Acetoxy-N, N-dimthyltryptamine, O-Acetyl Psilocin Fumerate, and 4-acetoxyindole. • 3. Untreated cells were used as negative control and Escitalopram at 0.3 mM was used as a positive control to activate ABCF1 expression for all the experiments. Analysis by qPCR:
• 1. 2 hours post treatment with drugs, the reaction was stopped by removing the media with the drug. Cells were then collected and RNA was isolated from these. • 2. After checking the quality of the RNA, cDNA was generated and qPCR was run with ABCF1 primers as the target gene and GAPDH as the house keeping gene. • 3. Normalized against the expression level of GAPDH, the fold change expression level of ABCF1 was calculated and tabulated for all treatment conditions.

Test [2] has as its system amyloid precursor protein (APP). Kind of test: Down regulation of APP in RAW cells by psychedelic drugs (Example 5). The test is classed as cell-based. As to conditions: post 2 hours treatment (FIG. 9).
Test [3] has as its system ABCF1. Kind of test: Escitalopram induces ABCF1 in a macrophage cell line (real time RT-PCR). The following applies: RAW macrophages, 0.3 mM, 1 hour. The test is classed as cell-based. On the procedure:
RAW macrophages were plated at 1×10^5 cells/well and cultured for 2 days. The cells were incubated with 0.3 mM Escitalopram for 1 hour, and then harvested for total RNA, which was extracted for real time RT-PCR specific for ABCF1 and IL-4. CT values were normalized with CT value for the housekeeping gene from the DMSO control.
For orientation: In qPCR the cycle at which signal appears reflects the starting amount.

Like-named read-outs stand apart in the source and are kept apart here.

With `CC(=O)Oc1cccc2[nH]ccc12` [AOI, 4-acetoxyindole], the “ABCF1 transcription / expression” value in the test on ABCF1 [1] is listed as “enhance expression of ABCF1”. Moreover, the “amyloid precursor protein (APP) expression” value in test [2] was “down regulation”.
As to `CC(=O)Oc1cccc2[nH]cc(CCN(C)C)c12.O=C(O)/C=C/C(=O)O` [APF, O-Acetyl Psilocin Fumerate], the “ABCF1 transcription / expression” value in the test with ABCF1 [1] is reported as “enhance expression of ABCF1”. Further, in test [2], the “amyloid precursor protein (APP) expression” value is recorded as “down regulation”.
Consider `CN(C)CCC[C@@]1(c2ccc(F)cc2)OCc2cc(C#N)ccc21` [Escitalopram], for which the ABCF1 expression entry in the test with ABCF1 [3] (vs DMSO control (FIG. 1)) is “induces ABCF1 expression”. Also, the “difference in the expression (ABCF1 and IL-4) after drug treatment” value with ABCF1 [3] (3 separate experiments) is “consistent with polarization towards an M2-like phenotype”.
Take `CN(C)CCc1c[nH]c2cccc(O)c12` [psilocin, 4-hydroxy-N,N-dimethyltryptamine, reference compound]: the “ABCF1 transcription / expression” value is given as “enhance expression of ABCF1” in the test on ABCF1 [1] and “upregulate ABCF1 transcription” with ABCF1 [1] (listed as psylocin).
